Data taken from patent publication US20250049831A1, “ANTIVIRAL USE OF BISE[…], AND BISEPOXYLIGNAN COMPOSITION AND PREPARATION OF BISE[…]” (priority 2021, published 2025).
Like-named read-outs stand apart in the source and are kept apart here.

Columns and labels:
COVID-19 virus = test: In-vitro antiviral CPE test in Vero E6 cells, COVID-19 virus; assay type: cell-based; conditions: Vero E6 cells, 100 TCID50, CPE after 3-4 days; unit not given (drug concentrations 250-15.62 μg/mL); in µg/mL
Vero cells = test: Drug cytotoxicity assay (MTT) on Vero cells; assay type: cell-based, African green monkey; conditions: 72 h, Probit regression
Text: Vero cells were subcultured for 1-2 d to make them into flakes, and trypsinized in the presence of clear boundaries, strong three-dimensional sense and strong refractive power, until needle-like holes appeared on the cell surfaces; after the trypsinization solution was absorbed completely, a few milliliters of culture medium were taken to blow away the cells; the cells were counted, diluted to about 5×10^7/L with a culture medium (DMEM containing 10% fetal bovine serum), and then inoculated in a 96-well culture plate; and the cells grew into a monolayer.
Cytotoxicity test: the drugs were diluted at the concentrations shown in Table 3-1 for cytotoxicity assay.

influenza virus [1] = test: Effect of drug on virus-induced CPE (MTT, antiviral effective rate), influenza virus in Vero cells; assay type: cell-based
parainfluenza virus [2] = test: Effect of drug on virus-induced CPE (MTT, antiviral effective rate), parainfluenza virus in Vero cells; assay type: cell-based
IL-1β = test: RT-qPCR of IL-1β in lung homogenate of mice infected with COVID-19 Delta virus; conditions: mRNA RT-qPCR, NC = 1.00
MCP-1 = test: RT-qPCR of MCP-1 in lung homogenate of mice infected with COVID-19 Delta virus; conditions: mRNA RT-qPCR, NC = 1.00
COVID-19 Delta virus [3] = test: Prophylactic administration, virus titer in lung tissues of mice infected with COVID-19 Delta virus; conditions: prophylactic gavage 5 days before infection, Day 5 after infection, TCID50 on VERO E6 cells
COVID-19 Delta virus [4] = test: Prophylactic administration, death protection of mice infected with COVID-19 Delta virus; conditions: for Death rate / Survival rate / Mean survival: within 5 days of Delta infection, n = 8; for Mean survival: x ± s
Procedure: hACE2 transgenic C57BL/6 mice were divided (8 mice in each group) into a normal group (NC), a virus infection group (Virus), and drug groups (a COVID-19 Delta virus low-dose (40 mg/kg) group, high-dose (80 mg/kg) group; and a positive control group (Remdesivir 50 mg/kg). Before nasal dripping infection, the drug was administered by gavage 5 days in advance, once a day. After 5 days of continuous gavage, nasal dripping infection was performed, and mice in each COVID-19 virus infection group were infected with COVID-19 Delta virus with 10′ PFU by nasal dripping, except for the normal group who were given PBS by nasal dripping.
After infection, the body weight change was recorded every day, the death of animals within 5 days of infection was recorded, and the mean survival days and mortality rate of 5 days were calculated.

influenza virus [5] = assay type: in vivo, Kunming mice; conditions: 13.0 mg/kg; for Hemagglutination titer inhibition rate (%): Day 5; for Hemagglutination titer: lung suspension
parainfluenza virus [6] = assay type: in vivo, Kunming mice; conditions: 13.0 mg/kg; for Hemagglutination titer inhibition rate (%): Day 5; for Hemagglutination titer: lung suspension, Day 5, […]
TNF-α = test: Serum TNF-α in mice infected with influenza virus; assay type: in vivo, ICR mice; conditions: Day 5 after influenza virus infection, gavage once a day, x ± s
Procedure: (§1) On the Day 5 after influenza virus infection, that is, Day 6 after administration, after the mice were fasted with solids for 8 h and weighed, venous blood was collected from the plexus ophthalmicus, and blood from mice in each group was preserved, subjected to serum separation, and stored in a refrigerator for later use. According to the instructions of a test kit, various detection and analysis were carried out, and IL-2 and TNF-α concentrations were calculated based on the standard detection and standard curve plotting.

IL-2 = test: Serum IL-2 in mice infected with influenza virus; assay type: in vivo, ICR mice; conditions: Day 5 after influenza virus infection, gavage once a day, x ± s
Procedure: as §1

influenza virus FM1 = test: Action links (Groups I-IV: prevention, treatment, direct inactivation), protection of cells against influenza virus; assay type: cell-based; conditions: for Protection rate (ER %), Group IV: drug and virus mixed and adsorbed for 2 h, then added with cells (direct inactivation); for Protection rate (ER %), Group III: drug solution and virus solution added at the same time (direct inactivation); for Protection rate (ER %), Group II: virus added first, drug added 1 h after adsorption (treatment); for Protection rate (ER %), Group I: virus solution added after 24 h of drug administration (prevention)
parainfluenza virus [7] = test: Action links (Groups I-IV: prevention, treatment, direct inactivation), protection of cells against parainfluenza virus; assay type: cell-based; conditions: for Protection rate (ER %), Group IV: drug and virus mixed and adsorbed for 2 h, then added with cells (direct inactivation); for Protection rate (ER %), Group III: drug solution and virus solution added at the same time (direct inactivation); for Protection rate (ER %), Group II: virus added first, drug added 1 h after adsorption (treatment); for Protection rate (ER %), Group I: virus solution added after 24 h of drug administration (prevention)
[8] = high-dose group 80 mg/kg gavage 5 days
[9] = low-dose group 40 mg/kg gavage 5 days
[10] = prophylactic administration, High dose
[11] = prophylactic administration, Low dose

SMILES	Hemagglutination titer inhibition rate (%) (influenza virus [5])	Hemagglutination titer inhibition rate (%) (parainfluenza virus [6])	Hemagglutination titer (parainfluenza virus [6])	Expression level of IL-1β in lung homogenate (x ± s) (IL-1β; [8])	Expression level of IL-1β in lung homogenate (x ± s) (IL-1β; [9])	Expression level of MCP-1 in lung homogenate (x ± s) (MCP-1; [8])	Expression level of MCP-1 in lung homogenate (x ± s) (MCP-1; [9])	TNF-a expression level (TNF-α; High-dose group (26.0 mg/kg))	TNF-a expression level (TNF-α; Low-dose group (13.0 mg/kg))	IL-2 expression level (IL-2; High-dose group (26.0 mg/kg))	IL-2 expression level (IL-2; Low-dose group (13.0 mg/kg))	Protection rate (ER %), Group IV (influenza virus FM1) [%]	Protection rate (ER %), Group III (influenza virus FM1) [%]	Protection rate (ER %), Group II (influenza virus FM1) [%]	Protection rate (ER %), Group I (influenza virus FM1) [%]	Protection rate (ER %), Group IV (parainfluenza virus [7]) [%]	Protection rate (ER %), Group III (parainfluenza virus [7]) [%]	Protection rate (ER %), Group II (parainfluenza virus [7]) [%]	Protection rate (ER %), Group I (parainfluenza virus [7]) [%]	Lung virus titer (x ± s, n = 8) (COVID-19 Delta virus [3]; high dose 80 mg/kg)	further results
COc1ccc(C2OCC3C(c4ccc(OC)c(OC)c4)OCC23)cc1O (centres unmarked) [compound 3]	–	–	–	–	–	–	–	–	–	–	–	–	–	–	–	–	–	–	–	–	COVID-19 virus IC50 (COVID-19 virus): 166.5; Maximum non-toxic concentration (TC0) (Vero cells): 0.012 g/L; Median toxic concentration (TC50) (Vero cells): 310 µg/mL; Effective rate, ER %, Influenza Virus (influenza virus [1]): 83.10%; Effective rate, ER %, Parainfluenza Virus (parainfluenza virus [2]): 91.41%
CCC(CC)COC(=O)[C@H](C)N[P@](=O)(OC[C@H]1O[C@@](C#N)(c2ccc3c(N)ncnn23)[C@H](O)[C@@H]1O)Oc1ccccc1 [Remdesivir, reference compound]	–	–	–	–	–	–	–	–	–	–	–	–	–	–	–	–	–	–	–	–	Expression level of IL-1β in lung homogenate (x ± s) (IL-1β; 50 mg/kg, 5 days): 9.52 ± 6.37; Expression level of MCP-1 in lung homogenate (x ± s) (MCP-1; 50 mg/kg, 5 days): 6.88 ± 5.73; Lung virus titer (x ± s, n = 8) (COVID-19 Delta virus [3]; 50 mg/kg): 3.69 ± 1.06; Death rate (COVID-19 Delta virus [4]; 50 mg/kg): 75.00%; Survival rate (COVID-19 Delta virus [4]; 50 mg/kg): 25.00%; Mean survival (COVID-19 Delta virus [4]; 50 mg/kg): 3.88 ± 0.83 days; Death protection rate (COVID-19 Delta virus [4]; prophylactic administration, 50 mg/kg, within 5 days of infection): 75%
COc1cc(O)cc(C2OCC3C(c4ccc(OC5OC(CO)C(O)C(O)C5O)c(OC)c4)OCC23)c1 [Serial No. 1, (7,8,7′,8′)-7,7′-bisepoxy-5′-hydroxy-3,3′hydroxy-bismethoxylignan, 4-O-β-D-glucoside]	43.39	37.46	21.65 ± 0.238	4.80 ± 18.82	9.13 ± 8.66	3.26 ± 9.77	6.13 ± 15.12	608.95 ± 34.92	673.65 ± 26.44	259.04 ± 39.98	288.64 ± 25.05	100.76	100.52	75.77	75.49	100.82	100.49	85.95	84.39	2.93 ± 0.34	Hemagglutination titer (influenza virus [5]; Day 5, titer (InX)): 20.08 ± 0.381; Lung virus titer (x ± s, n = 8) (COVID-19 Delta virus [3]; low dose 40 mg/kg): 3.36 ± 0.28; Death rate (COVID-19 Delta virus [4]; [10]): 12.50%; Survival rate (COVID-19 Delta virus [4]; [10]): 87.50%; Mean survival (COVID-19 Delta virus [4]; [10]): 4.88 ± 0.35 days; Death rate (COVID-19 Delta virus [4]; [11]): 75.00%; Survival rate (COVID-19 Delta virus [4]; [11]): 25.00%; Mean survival (COVID-19 Delta virus [4]; [11]): 4.25 ± 0.46 days
COc1ccc([C@H]2OC[C@H]3[C@@H]2CO[C@H]3c2ccc(O[C@@H]3O[C@H](CO)[C@@H](O)[C@H](O)[C@H]3O)c(OC)c2)cc1OC [Serial No. 2, phillyrin]	43.30	37.52	21.63 ± 0.330	5.11 ± 14.34	10.58 ± 10.22	3.66 ± 11.30	7.42 ± 12.66	618.38 ± 28.86	683.47 ± 37.37	262.88 ± 35.66	293.00 ± 21.88	100.86	100.68	75.58	75.86	100.93	100.67	85.94	84.48	2.95 ± 0.57	Hemagglutination titer (influenza virus [5]; Day 5, […]): 20.11 ± 0.351; Lung virus titer (x ± s, n = 8) (COVID-19 Delta virus [3]; low dose 40 mg/kg): 3.70 ± 0.25; Death rate (COVID-19 Delta virus [4]; [10]): 12.50%; Survival rate (COVID-19 Delta virus [4]; [10]): 87.50%; Mean survival (COVID-19 Delta virus [4]; [10]): 4.88 ± 0.35 days; Death rate (COVID-19 Delta virus [4]; [11]): 75.00%; Survival rate (COVID-19 Delta virus [4]; [11]): 25.00%; Mean survival (COVID-19 Delta virus [4]; [11]): 3.88 ± 0.83 days
